Patent US20100285959A1, “HERBICIDAL MIXTURES” (priority 2006, published 2010)

Experiments:
velvetleaf (ABUTH) [1] = assay: Test 16 greenhouse, post- and preemergence; settings: 15 DAA
flint corn (ZEAMI) = assay: Test 11 field trial, preemergence; type: in vivo, Zea mays L. ssp. indurata; design: scale not given here; settings: atrazine 1500 or metolachlor 2500 g a.i./ha alone
Text: (§1) Corn seeds (hybrid ‘Pioneer 3041’) were planted in mid spring season, 5 cm deep in a clay soil having 2.6% organic matter and a pH of 5.6. Plots were 8 m long by 1.5 m wide with rows spaced 80 cm apart. Seeds were spaced 15 cm apart within the rows. The field was managed using conventional tillage practices. […] Treatments consisted of Compound 2 or
(§2) Goosegrass was not evaluated 16 or 91 days after application.

common blackjack (BIDPI) = assay: Test 11 field trial, preemergence; type: in vivo, Bidens pilosa; design: scale not given here; settings: atrazine 1500 or metolachlor 2500 g a.i./ha alone
Text: as §1, §2

Surinam grass (BRADC) = assay: Test 11 field trial, preemergence; type: in vivo, Brachiaria decumbens; design: scale not given here; settings: atrazine 1500 or metolachlor 2500 g a.i./ha alone
Text: as §1, §2

alexandergrass (BRAPL) = assay: Test 11 field trial, preemergence; type: in vivo, Brachiaria plantaginea; design: scale not given here; settings: atrazine 1500 or metolachlor 2500 g a.i./ha alone
Text: as §1, §2

southern sandbur (CCHEC) = assay: Test 11 field trial, preemergence; type: in vivo, Cenchrus echinatus; design: scale not given here; settings: atrazine 1500 or metolachlor 2500 g a.i./ha alone
Text: as §1, §2

[2] = test system: tropical spiderwort (COMBE); assay: Test 11 field trial, preemergence; type: in vivo, Commelina benghalensis; design: scale not given here; settings: atrazine 1500 or metolachlor 2500 g a.i./ha alone
Text: as §1, §2

[3] = test system: Brazilian crabgrass (DIGHO); assay: Test 11 field trial, preemergence; type: in vivo, Digitaria horizontalis; design: scale not given here; settings: atrazine 1500 or metolachlor 2500 g a.i./ha alone
Text: as §1, §2

goosegrass (ELEIN) = assay: Test 11 field trial, preemergence; type: in vivo, Eleusine indica
Text: as §1, §2

[4] = test system: Ipomoea grandiflora (IPOGF); assay: Test 11 field trial, preemergence; type: in vivo
Text: as §1, §2

arrowleaf sida (SIDRH) = assay: Test 11 field trial, preemergence; type: in vivo, Sida rhombifolia
Text: as §1, §2

velvetleaf (ABUTH) [5] = assay: Test 18 greenhouse, post- and preemergence; settings: 15 DAA
winter wheat (TRZAW) = assay: Test 27 field trial, postemergence; type: in vivo, Triticum aestivum; settings: in vivo
Text: (§3) Wheat seeds (cv. ‘Custer’) were planted in late fall season in a clay loam soil. Plots were 9 m long by 1.8 m wide. The field was managed using conventional tillage practices. […] All treatments also included a surfactant. […] Results are the means of the three replicates.

kochia (KCHSC) = assay: Test 27 field trial, postemergence; type: in vivo, Kochia scoparia; design: scale not given here; settings: tribenuron-methyl 10 g a.i./ha
Text: as §3

[6] = 30 DAA, atrazine 1500 or metolachlor 2500 g a.i./ha alone
[7] = 44 DAA, 2500 g a.i./ha, scale 0 to 100
[8] = 62 DAA, 2500 g a.i./ha, scale 0 to 100
[9] = 16 DAA, atrazine 1500 or metolachlor 2500 g a.i./ha alone
[10] = 91 DAA, 2500 g a.i./ha, scale 0 to 100

With C#CCN1C(=O)COc2cc(F)c(N3C(=O)C4=C(CCCC4)C3=O)cc21 [Flumioxazin] the “Obs response, scale 0 to 100” value (velvetleaf (ABUTH) [1]; Postemergence, 7.5 g a.i./ha) was 36, the “Obs response, scale 0 to 100” value (velvetleaf (ABUTH) [1]; Postemergence, 15 g a.i./ha) was 47 and the “Obs response, scale 0 to 100” value (velvetleaf (ABUTH) [1]; Postemergence, 30 g a.i./ha) was 52. The “Obs response, scale 0 to 100” value (velvetleaf (ABUTH) [1]; Postemergence, 45 g a.i./ha) was 69, the “Obs response, scale 0 to 100” value (velvetleaf (ABUTH) [1]; Preemergence, 7.5 g a.i./ha) was 58 and the “Obs response, scale 0 to 100” value (velvetleaf (ABUTH) [1]; Preemergence, 15 g a.i./ha) was 65. For the same compound, the “Obs response, scale 0 to 100” value (velvetleaf (ABUTH) [1]; Preemergence, 30 g a.i./ha) was 93 and the “Obs response, scale 0 to 100” value (velvetleaf (ABUTH) [1]; Preemergence, 45 g a.i./ha) was 100.
In the case of CCc1cccc(C)c1N(C(=O)CCl)C(C)COC (centres unmarked) [Metolachlor], the “ZEAMI Obs” value (flint corn (ZEAMI); 16 DAA) is reported as 30, the “ZEAMI Obs” value (flint corn (ZEAMI); 30 DAA) is reported as 20 and the “ZEAMI Obs” value (flint corn (ZEAMI); 44 DAA) is reported as 25. For the same compound, the “ZEAMI Obs” value (flint corn (ZEAMI); 62 DAA) was 20, the “ZEAMI Obs” value (flint corn (ZEAMI); 91 DAA) was 20 and the “BIDPI Obs” value (common blackjack (BIDPI); 16 DAA) was 40. The “BIDPI Obs” value (common blackjack (BIDPI); 30 DAA) was 40, the “BIDPI Obs” value (common blackjack (BIDPI); 44 DAA) was 40 and the “BIDPI Obs” value (common blackjack (BIDPI); 62 DAA) was 0. The “BIDPI Obs” value (common blackjack (BIDPI); 91 DAA) was 0, the “BRADC Obs” value (Surinam grass (BRADC); 16 DAA) was 97 and the “BRADC Obs” value (Surinam grass (BRADC); 30 DAA) was 95. For the same compound, the “BRADC Obs” value (Surinam grass (BRADC); 44 DAA) was 90, the “BRADC Obs” value (Surinam grass (BRADC); 62 DAA) was 60 and the “BRADC Obs” value (Surinam grass (BRADC); 91 DAA) was 40. For the same compound, the “BRAPL Obs” value (alexandergrass (BRAPL); 16 DAA) was 97, the “BRAPL Obs” value (alexandergrass (BRAPL); 30 DAA) was 90 and the “BRAPL Obs” value (alexandergrass (BRAPL); 44 DAA) was 90. For the same compound, the “BRAPL Obs” value (alexandergrass (BRAPL); 62 DAA) was 60, the “BRAPL Obs” value (alexandergrass (BRAPL); 91 DAA) was 40 and the “CCHEC Obs” value (southern sandbur (CCHEC); 16 DAA) was 95. The “CCHEC Obs” value (southern sandbur (CCHEC); 30 DAA) was 97, the “CCHEC Obs” value (southern sandbur (CCHEC); 44 DAA) was 97 and the “CCHEC Obs” value (southern sandbur (CCHEC); 62 DAA) was 80. For the same compound, the “CCHEC Obs” value (southern sandbur (CCHEC); 91 DAA) was 100, the “COMBE Obs” value ([2]; 16 DAA) was 100 and the “COMBE Obs” value ([2]; 30 DAA) was 100. For the same compound, the “COMBE Obs” value ([2]; 44 DAA) was 100, the “COMBE Obs” value ([2]; 62 DAA) was 100 and the “COMBE Obs” value ([2]; 91 DAA) was 100. The “DIGHO Obs” value ([3]; 16 DAA) was 100, the “DIGHO Obs” value ([3]; 30 DAA) was 100 and the “DIGHO Obs” value ([3]; 44 DAA) was 100. The “DIGHO Obs” value ([3]; 62 DAA) was 100, the “DIGHO Obs” value ([3]; 91 DAA) was 95 and the “ELEIN Obs” value (goosegrass (ELEIN); [6]) was 100. The “ELEIN Obs” value (goosegrass (ELEIN); [7]) was 100, the “ELEIN Obs” value (goosegrass (ELEIN); [8]) was 100 and the “IPOGF Obs” value [4, 9] was 70. The “IPOGF Obs” value [4, 6] was 60, the “IPOGF Obs” value [4, 7] was 40 and the “IPOGF Obs” value [4, 8] was 40. For the same compound, the “IPOGF Obs” value [4, 10] was 40, the “SIDRH Obs” value (arrowleaf sida (SIDRH); [9]) was 90 and the “SIDRH Obs” value (arrowleaf sida (SIDRH); [6]) was 80. For the same compound, the “SIDRH Obs” value (arrowleaf sida (SIDRH); [7]) was 60, the “SIDRH Obs” value (arrowleaf sida (SIDRH); [8]) was 70 and the “SIDRH Obs” value (arrowleaf sida (SIDRH); [10]) was 90.
Cc1nn(-c2cc(NS(C)(=O)=O)c(Cl)cc2Cl)c(=O)n1C(F)F [Sulfentrazone] was tested, and the “Postemergence ABUTH Obs” value (velvetleaf (ABUTH) [5]; alone at 7.5 g a.i./ha) was 10, the “Preemergence ABUTH Obs” value (velvetleaf (ABUTH) [5]; alone at 7.5 g a.i./ha) was 0 and the “Postemergence ABUTH Obs” value (velvetleaf (ABUTH) [5]; alone at 15 g a.i./ha) was 19. The “Preemergence ABUTH Obs” value (velvetleaf (ABUTH) [5]; alone at 15 g a.i./ha) was 3, the “Postemergence ABUTH Obs” value (velvetleaf (ABUTH) [5]; alone at 30 g a.i./ha) was 44 and the “Preemergence ABUTH Obs” value (velvetleaf (ABUTH) [5]; alone at 30 g a.i./ha) was 28.
In the case of COC(=O)c1ccccc1S(=O)(=O)NC(=O)N(C)c1nc(C)nc(OC)n1 [Tribenuron-methyl], the “TRZAW Obs” value (winter wheat (TRZAW); cv. Custer, Triticum aestivum (winter wheat), 16 days after application) is reported as 0, the “TRZAW Obs” value (winter wheat (TRZAW); cv. Custer, Triticum aestivum (winter wheat), 28 days after application) is reported as 0 and the “TRZAW Obs” value (winter wheat (TRZAW)) is reported as 0. The “KCHSC Obs” value (kochia (KCHSC); 16 DAA) was 22, the “KCHSC Obs” value (kochia (KCHSC); 28 DAA) was 23 and the “KCHSC Obs” value (kochia (KCHSC); 49 DAA) was 22.
